± gives the uncertainty stated by the source.
Experiment: xn = mol fraction of the nth substance listed
Conditions: for electrical conductivity: 101 kPa

CCCCCCCCCCCC[N+](C)(C)Cc1ccccc1.[Cl-] + CC(C)C[C@H](NC(=O)CN)C(=O)O + O
electrical conductivity [S/m]
Conditions	293.15 K	298.15 K	303.15 K	308.15 K	313.15 K
x2 = 0.0008999, x1 = 0.0002654	0.0792 ± 0.005	0.0889 ± 0.0055	0.0993 ± 0.0061	0.11 ± 0.0068	0.123 ± 0.0075
x2 = 0.0008999, x1 = 0.0002843	0.0824 ± 0.0052	0.0926 ± 0.0058	0.104 ± 0.0064	0.116 ± 0.0071	0.129 ± 0.0079
x2 = 0.0008999, x1 = 0.0003023	0.0854 ± 0.0054	0.096 ± 0.006	0.107 ± 0.0066	0.12 ± 0.0074	0.134 ± 0.0082
x2 = 0.0008999, x1 = 0.0003252	0.0892 ± 0.0056	0.101 ± 0.0063	0.113 ± 0.007	0.126 ± 0.0077	0.14 ± 0.0085
x2 = 0.0009, x1 = 0.0001699	0.0609 ± 0.0038	0.068 ± 0.0042	0.0754 ± 0.0047	0.0833 ± 0.0051	0.0918 ± 0.0056
x2 = 0.0009, x1 = 0.000197	0.0669 ± 0.0042	0.0747 ± 0.0047	0.083 ± 0.0051	0.0919 ± 0.0056	0.102 ± 0.0062
x2 = 0.0009, x1 = 0.000222	0.0716 ± 0.0045	0.0801 ± 0.005	0.0893 ± 0.0055	0.0991 ± 0.0061	0.11 ± 0.0067
x2 = 0.0009, x1 = 0.0002447	0.0757 ± 0.0048	0.0848 ± 0.0053	0.0946 ± 0.0059	0.105 ± 0.0065	0.117 ± 0.0072
x2 = 0.0009001, x1 = 5.034e-05	0.0218 ± 0.0014	0.0243 ± 0.0015	0.0272 ± 0.0017	0.0302 ± 0.0019	0.0333 ± 0.0021
x2 = 0.0009001, x1 = 7.251e-05	0.03 ± 0.0019	0.0335 ± 0.0021	0.0373 ± 0.0023	0.0412 ± 0.0025	0.0454 ± 0.0028
x2 = 0.0009001, x1 = 9.522e-05	0.038 ± 0.0024	0.0425 ± 0.0026	0.0473 ± 0.0029	0.0521 ± 0.0032	0.0573 ± 0.0036
x2 = 0.0009001, x1 = 0.0001178	0.0458 ± 0.0029	0.0511 ± 0.0032	0.0567 ± 0.0035	0.0625 ± 0.0039	0.0687 ± 0.0042
x2 = 0.0009001, x1 = 0.0001434	0.0539 ± 0.0034	0.0601 ± 0.0037	0.0666 ± 0.0041	0.0734 ± 0.0045	0.0808 ± 0.005
x2 = 0.001793, x1 = 4.141e-05	0.0191 ± 0.0012	0.0215 ± 0.0013	0.0243 ± 0.0015	0.0271 ± 0.0017	0.0301 ± 0.0019
x2 = 0.001793, x1 = 6.45e-05	0.0271 ± 0.0017	0.0306 ± 0.0019	0.0342 ± 0.0021	0.038 ± 0.0024	0.0421 ± 0.0026
x2 = 0.001793, x1 = 8.905e-05	0.0354 ± 0.0022	0.0397 ± 0.0025	0.0444 ± 0.0028	0.0491 ± 0.0031	0.0542 ± 0.0034
x2 = 0.001793, x1 = 0.0001112	0.0424 ± 0.0026	0.0477 ± 0.003	0.0531 ± 0.0033	0.0587 ± 0.0037	0.0648 ± 0.0041
x2 = 0.001793, x1 = 0.0001367	0.05 ± 0.0031	0.056 ± 0.0035	0.0624 ± 0.0039	0.069 ± 0.0043	0.0761 ± 0.0048
x2 = 0.001793, x1 = 0.0001631	0.0569 ± 0.0035	0.0637 ± 0.0039	0.0707 ± 0.0044	0.0787 ± 0.0049	0.0879 ± 0.0054
x2 = 0.001793, x1 = 0.0001904	0.0632 ± 0.004	0.0708 ± 0.0044	0.0791 ± 0.0049	0.0877 ± 0.0054	0.0969 ± 0.006
x2 = 0.001793, x1 = 0.0002156	0.0683 ± 0.0043	0.0767 ± 0.0047	0.0859 ± 0.0053	0.0955 ± 0.0059	0.106 ± 0.0065
x2 = 0.001793, x1 = 0.0002389	0.0727 ± 0.0046	0.0819 ± 0.0051	0.0918 ± 0.0056	0.102 ± 0.0063	0.114 ± 0.007
x2 = 0.001793, x1 = 0.00026	0.0766 ± 0.0048	0.0863 ± 0.0053	0.0969 ± 0.006	0.108 ± 0.0067	0.121 ± 0.0074
x2 = 0.001793, x1 = 0.0002803	0.0802 ± 0.005	0.0905 ± 0.0056	0.102 ± 0.0063	0.114 ± 0.007	0.127 ± 0.0078
x2 = 0.001793, x1 = 0.0003015	0.0838 ± 0.0053	0.0947 ± 0.0059	0.107 ± 0.0066	0.12 ± 0.0073	0.133 ± 0.0082
x2 = 0.001793, x1 = 0.0003211	0.0872 ± 0.0055	0.0986 ± 0.0061	0.112 ± 0.0069	0.125 ± 0.0077	0.139 ± 0.0086

CS(C)=O + CC(N)C(=O)[O-].COCCCCn1cc[n+](C)c1
Conditions	viscosity [mPa·s]
308.15 K, 100 kPa, x2 = 0	1.65 ± 0.02
